Biological target: T1, renin (Homo sapiens, UniProt P00797)
T1 sequence (P00797 67-406): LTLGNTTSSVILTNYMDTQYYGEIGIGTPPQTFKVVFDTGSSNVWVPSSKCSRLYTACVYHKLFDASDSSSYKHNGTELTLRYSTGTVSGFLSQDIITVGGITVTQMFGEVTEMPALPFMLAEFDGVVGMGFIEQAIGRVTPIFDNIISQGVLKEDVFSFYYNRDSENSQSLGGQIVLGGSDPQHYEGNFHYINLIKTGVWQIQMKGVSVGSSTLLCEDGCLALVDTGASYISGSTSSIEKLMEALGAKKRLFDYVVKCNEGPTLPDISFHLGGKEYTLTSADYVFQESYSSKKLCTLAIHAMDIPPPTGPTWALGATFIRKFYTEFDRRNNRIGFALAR
Assay: in vitro renin inhibitory activity, radioimmunoassay for angiotensin I
Assay type: biochemical
Details: renin incubated two hours at 37° with substrate angiotensinogen; angiotensin I measured by radioimmunoassay
Description: The effectiveness of the aforementioned compounds is determined by a test for in vitro renin inhibitory activity. This activity is determined by a standard radioimmunoassay for angiotensin I. In this assay the enzyme, renin, incubated for two hours at 37° in the presence of a substrate, angiotensinogen, generates the product, angiotensin I. Test compounds are added to the incubation mixture. Relative activity is reported as the IC50, which is the molar concentration of test compound causing a 50% inhibition of the renin activity.

## BOC-PHE-LEU-STA-GLN-PRO-OCH3 [Example 8]
  IC50: 1.1 µM

Reference: US4804743A, “Proline-containing renin inhibitors” (Warner-Lambert Copmany, priority 1987, dated 1989)
